Literature values, collected in article PMC8554823 (ACS Central Science, 2021).

Biological target: human granzyme B (Homo sapiens, UniProt P10144)
Conditions: previously reported value for IEPD alone

Chain of human granzyme B (P10144 21-247): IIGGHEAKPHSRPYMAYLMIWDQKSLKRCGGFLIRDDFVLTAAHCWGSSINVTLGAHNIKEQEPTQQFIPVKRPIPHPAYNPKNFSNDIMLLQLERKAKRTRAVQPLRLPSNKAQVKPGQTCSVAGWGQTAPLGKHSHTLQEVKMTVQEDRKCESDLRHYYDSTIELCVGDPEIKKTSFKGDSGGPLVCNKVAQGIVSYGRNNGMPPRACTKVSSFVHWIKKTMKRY

catalytic efficiency (kcat/Km): ~3300 M^–1 s^–1
Substance: IEPD
